Data: PubChem BioAssay (NCI)
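Following 48 hours of exposure in 96-well plates, responses at five concentrations were used to interpolate endpoints linearly. GI50: concentration for 50% inhibition of growth. TGI is the concentration that stops growth completely.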

Legend:
Test in all cases: growth of human tumour cells (NCI), 48 h
[1] = test system: 786-0 renal
[2] = test system: A498 renal
[3] = test system: A549 NSCLC
[4] = test system: ACHN renal
[5] = test system: CCRF-CEM leukemia
[6] = test system: COLO 205 colon
[7] = test system: DU-145 prostate
[8] = test system: EKVX NSCLC
[9] = test system: HCC-2998 colon
[10] = test system: HCT-116 colon
[11] = test system: HCT-15 colon
[12] = test system: HL-60(TB) leukemia
[13] = test system: HOP-62 NSCLC
[14] = test system: HOP-92 NSCLC
[15] = test system: HS 578T breast
[16] = test system: HT29 colon
[17] = test system: K-562 leukemia
[18] = test system: KM12 colon
[19] = test system: LOX IMVI melanoma
[20] = test system: M14 melanoma
[21] = test system: MALME-3M melanoma
[22] = test system: MCF7 breast
[23] = test system: MDA-MB-231 breast
[24] = test system: MDA-MB-435
[25] = test system: MDA-N
[26] = test system: MOLT-4 leukemia
[27] = test system: NCI-H226 lung
[28] = test system: NCI-H23 lung
[29] = test system: NCI-H460 lung
[30] = test system: NCI/ADR-RES ovarian
[31] = test system: OVCAR-3 ovarian
[32] = test system: OVCAR-4 ovarian
[33] = test system: OVCAR-5 ovarian
[34] = test system: OVCAR-8 ovarian
[35] = test system: PC-3 prostate
[36] = test system: RPMI-8226 leukemia
[37] = test system: RXF 393 renal
[38] = test system: SF-268 CNS
[39] = test system: SF-295 CNS
[40] = test system: SF-539 CNS
[41] = test system: SK-MEL-2 melanoma
[42] = test system: SK-MEL-28 melanoma
[43] = test system: SK-MEL-5 melanoma
[44] = test system: SK-OV-3 ovarian
[45] = test system: SN12C renal
[46] = test system: SNB-19 CNS
[47] = test system: SR leukemia
[48] = test system: SW-620 colon
[49] = test system: TK-10 renal
[50] = test system: U251 CNS
[51] = test system: UACC-257 melanoma
[52] = test system: UACC-62 melanoma
[53] = test system: UO-31 renal
[54] = test system: CAKI-1 renal
[55] = test system: T-47D breast
[56] = test system: IGROV1 ovarian
[57] = test system: SNB-75 CNS
[58] = test system: NCI-H522 lung
[59] = test system: BT-549 breast

## Cc1nc2c([nH]c1C)c(O)cc1c3c(nc12)C(=O)CCC3
[1]
  TGI: > 100 µM
[2]
  TGI: > 100 µM
[3]
  TGI: 14.1 µM
[4]
  TGI: > 100 µM
[5]
  TGI: > 100 µM
[6]
  TGI: 5.99 µM
[7]
  TGI: > 100 µM
[8]
  TGI: > 100 µM
[9]
  TGI: 7.88 µM
[10]
  TGI: > 100 µM
[11]
  TGI: > 100 µM
[12]
  TGI: > 100 µM
[13]
  TGI: > 100 µM
[14]
  TGI: > 100 µM
[15]
  TGI: 83 µM
[16]
  TGI: 11.7 µM
[17]
  TGI: > 100 µM
[18]
  TGI: > 100 µM
[19]
  TGI: > 100 µM
[20]
  TGI: > 100 µM
[21]
  TGI: > 100 µM
[22]
  TGI: 4.35 µM
[23]
  TGI: > 100 µM
[24]
  TGI: 2.05 µM
[25]
  TGI: 3.1 µM
[26]
  TGI: > 100 µM
[27]
  TGI: > 100 µM
[28]
  TGI: > 100 µM
[29]
  TGI: > 100 µM
[30]
  TGI: > 100 µM
[31]
  TGI: 7.31 µM
[32]
  TGI: 45.4 µM
[33]
  TGI: > 100 µM
[34]
  TGI: 8.25 µM
[35]
  TGI: > 100 µM
[36]
  TGI: 7.05 µM
[37]
  TGI: 3.68 µM
[38]
  TGI: 96.2 µM
[39]
  TGI: 90.8 µM
[40]
  TGI: 13.6 µM
[41]
  TGI: 8.92 µM
[42]
  TGI: > 100 µM
[43]
  TGI: > 100 µM
[44]
  TGI: 38.1 µM
[45]
  TGI: > 100 µM
[46]
  TGI: > 100 µM
[47]
  TGI: 8.77 µM
[48]
  TGI: > 100 µM
[49]
  TGI: 26.3 µM
[50]
  TGI: 20.9 µM
[51]
  TGI: > 100 µM
[52]
  TGI: 52.6 µM
[53]
  TGI: 84.2 µM

## CN(C)c1ccc(/C=c2/c3ccccc3n3c2cc(-c2ccc(Cl)cc2)[n+]3C)cc1
[2]
  TGI: 3.45 µM
[3]
  TGI: 1.87 µM
[4]
  TGI: 1.46 µM
[54]
  TGI: 0.782 µM
[6]
  TGI: 0.211 µM
[7]
  TGI: 1.13 µM
[8]
  TGI: 2.41 µM
[9]
  TGI: 1.95 µM
[13]
  TGI: 1.48 µM
[18]
  TGI: 0.264 µM
[24]
  TGI: 1.18 µM
[25]
  TGI: 1.23 µM
[26]
  TGI: > 100 µM
[27]
  TGI: 1.68 µM
[29]
  TGI: 0.656 µM
[30]
  TGI: > 89.3 µM
[31]
  TGI: 1.34 µM
[32]
  TGI: 2.51 µM
[33]
  TGI: 2.33 µM
[35]
  TGI: 1.01 µM
[36]
  TGI: 0.566 µM
[39]
  TGI: 1.77 µM
[40]
  TGI: 0.748 µM
[41]
  TGI: 0.845 µM
[42]
  TGI: 1.9 µM
[43]
  TGI: 0.362 µM
[44]
  TGI: 1.45 µM
[46]
  TGI: 1.33 µM
[48]
  TGI: 1.31 µM
[55]
  TGI: 1.38 µM
[50]
  TGI: 1.09 µM
[51]
  TGI: 1.08 µM

## O=C1C(=O)c2c(O)ccc(O)c2C(O)=C1Cl
[1]
  TGI: > 100 µM
[2]
  TGI: > 100 µM
[3]
  TGI: > 100 µM
[54]
  TGI: > 100 µM
[5]
  TGI: > 100 µM
[6]
  TGI: > 100 µM
[7]
  TGI: > 100 µM
[8]
  TGI: > 100 µM
[9]
  TGI: > 100 µM
[10]
  TGI: > 100 µM
[11]
  TGI: > 100 µM
[12]
  TGI: > 100 µM
[13]
  TGI: > 100 µM
[14]
  TGI: > 100 µM
[16]
  TGI: > 100 µM
[56]
  TGI: > 100 µM
[17]
  TGI: > 100 µM
[18]
  TGI: > 100 µM
[20]
  TGI: > 100 µM
[21]
  TGI: 78.3 µM
[22]
  TGI: > 100 µM
[23]
  TGI: > 100 µM
[25]
  TGI: > 100 µM
[28]
  TGI: > 100 µM
[29]
  TGI: > 100 µM
[30]
  TGI: > 100 µM
[31]
  TGI: > 100 µM
[32]
  TGI: > 100 µM
[33]
  TGI: > 100 µM
[34]
  TGI: > 100 µM
[35]
  TGI: > 100 µM
[36]
  TGI: > 100 µM
[37]
  TGI: > 100 µM
[38]
  TGI: > 100 µM
[39]
  TGI: > 100 µM
[40]
  TGI: > 100 µM
[42]
  TGI: > 100 µM
[43]
  TGI: > 100 µM
[46]
  TGI: > 100 µM
[57]
  TGI: > 100 µM
[47]
  TGI: > 100 µM
[48]
  TGI: > 100 µM
[55]
  TGI: > 100 µM
[49]
  TGI: > 100 µM
[50]
  TGI: > 100 µM
[51]
  TGI: > 100 µM
[52]
  TGI: > 100 µM
[53]
  TGI: > 100 µM

## COc1ccc2cc(C(=O)Nc3ccc(O)c(C(=O)O)c3)ccc2c1OC
[1]
  TGI: > 100 µM
[4]
  TGI: > 100 µM
[54]
  TGI: > 100 µM
[5]
  TGI: > 100 µM
[7]
  TGI: > 100 µM
[8]
  TGI: > 100 µM
[9]
  TGI: > 100 µM
[10]
  TGI: > 100 µM
[11]
  TGI: > 100 µM
[12]
  TGI: > 100 µM
[13]
  TGI: > 100 µM
[16]
  TGI: > 100 µM
[56]
  TGI: > 100 µM
[17]
  TGI: > 100 µM
[18]
  TGI: > 100 µM
[19]
  TGI: > 100 µM
[20]
  TGI: > 100 µM
[21]
  TGI: > 100 µM
[22]
  TGI: > 100 µM
[23]
  TGI: > 100 µM
[24]
  TGI: > 100 µM
[25]
  TGI: > 100 µM
[26]
  TGI: > 100 µM
[27]
  TGI: > 100 µM
[28]
  TGI: > 100 µM
[29]
  TGI: > 100 µM
[58]
  TGI: > 100 µM
[30]
  TGI: > 100 µM
[31]
  TGI: > 100 µM
[32]
  TGI: > 100 µM
[33]
  TGI: > 100 µM
[34]
  TGI: > 100 µM
[35]
  TGI: > 100 µM
[36]
  TGI: > 100 µM
[38]
  TGI: > 100 µM
[40]
  TGI: > 100 µM
[41]
  TGI: > 100 µM
[42]
  TGI: > 100 µM
[43]
  TGI: > 100 µM
[44]
  TGI: > 100 µM
[45]
  TGI: > 100 µM
[46]
  TGI: > 100 µM
[57]
  TGI: > 100 µM
[47]
  TGI: > 100 µM
[48]
  TGI: > 100 µM
[55]
  TGI: > 100 µM
[49]
  TGI: > 100 µM
[50]
  TGI: > 100 µM
[51]
  TGI: > 100 µM
[52]
  TGI: > 100 µM
[53]
  TGI: > 100 µM

## Brc1ccc2[nH]cc([C@H]3CN[C@@H](c4c[nH]c5ccc(Br)cc45)CN3)c2c1
[1]
  TGI: 5.68 µM
[2]
  TGI: 4.53 µM
[3]
  TGI: 7.17 µM
[4]
  TGI: 5.01 µM
[59]
  TGI: > 62 µM
[54]
  TGI: 4.88 µM
[5]
  TGI: 6.11 µM
[6]
  TGI: 3.24 µM
[7]
  TGI: 5.25 µM
[8]
  TGI: 6.46 µM
[9]
  TGI: 3.17 µM
[10]
  TGI: 4.68 µM
[11]
  TGI: 3.81 µM
[12]
  TGI: 4.08 µM
[13]
  TGI: > 41.2 µM
[14]
  TGI: 6.05 µM
[15]
  TGI: 28.2 µM
[16]
  TGI: 4.68 µM
[56]
  TGI: 3.78 µM
[17]
  TGI: 4.54 µM
[18]
  TGI: 3.25 µM
[19]
  TGI: 2.82 µM
[20]
  TGI: 3.38 µM
[21]
  GI50: 2.79 µM
  TGI: 15 µM
[22]
  TGI: 3.3 µM
[23]
  GI50: 1.85 µM
  TGI: 3.81 µM
[24]
  TGI: 3.18 µM
[26]
  TGI: 4.95 µM
[27]
  TGI: 7.76 µM
[28]
  TGI: 3.62 µM
[29]
  GI50: 3.04 µM
  TGI: 16.3 µM
[58]
  TGI: 3.27 µM
[30]
  TGI: 4.52 µM
[31]
  TGI: 3.8 µM
[32]
  TGI: 4.44 µM
[33]
  GI50: 3.25 µM
  TGI: 12 µM
[34]
  TGI: 3.7 µM
[35]
  TGI: 5.27 µM
[36]
  TGI: 6.04 µM
[37]
  TGI: > 25.4 µM
[38]
  TGI: 9.05 µM
[39]
  GI50: 12.2 µM
  TGI: 27.6 µM
[40]
  TGI: 4.06 µM
[41]
  TGI: 5.54 µM
[42]
  TGI: > 52.6 µM
[43]
  TGI: 6.77 µM
[44]
  TGI: > 23.5 µM
[45]
  TGI: 9.89 µM
[46]
  TGI: > 23.9 µM
[57]
  GI50: 1.5 µM
  TGI: 8.46 µM
[47]
  TGI: 5.2 µM
[48]
  TGI: > 22.1 µM
[55]
  GI50: 3.62 µM
  TGI: 18 µM
[49]
  TGI: 4.78 µM
[50]
  TGI: 5.02 µM
[51]
  GI50: 7.39 µM
  TGI: 21.4 µM
[52]
  TGI: > 45.9 µM
[53]
  TGI: 5.29 µM
